For assay [1], the system named is SW1 tumors (shNT, shH2K1, shEB1, EB1 WT or N46G). Put plainly: H2K1/EB1 knockdown and glyco-fucomutant EB1 reconstitution mouse model. It counts as in vivo, C3H/HeN mice. The text has this: All animals were housed at the Vincent A. Stabile Research building animal facility at H. Lee Moffitt Cancer Center & Research Institute, which is fully accredited by the Association for Assessment and Accreditation of Laboratory Animal Care International (AAALAC, #434), and are managed in accordance with the Guide for the Care and Use of Laboratory Animals (“The Guide”), the Animal Welfare Regulations Title 9 Code of Federal Regulations Subchapter A, “Animal Welfare”, Parts 1-3 (AWR), the Public Health Service Policy on Humane Care and Use of Laboratory Animals (PHS Policy), and by the USF Institutional Animal Care and Use Committee's Principles and Procedures of Animal Care and Use (IACUC Principles). The experiments and protocols detailed in this study received institutional approval by the Moffitt IACUC (RIS00001625). Four-to-six-week-old female C3H/HeN and male C57BL6 mice were purchased from Charles Rivers Laboratories for the indicated experiments. Four-to-six-week-old male NSG mice from the Lau laboratory breeding colony were used for the indicated experiments. Power calculations were used to determine mouse cohort sizes to detect significant changes in tumor sizes. In general, 10 mice per indicated cohort to accommodate for incidental loss of mice due to issues beyond our control (e.g., incidental tumor ulceration that required exclusion from the study). Mouse tumor volumes were measured using length, width and depth divided by 2. At each experimental endpoint, mice were humanely euthanized using CO2 inhalation in accordance to the American Veterinary Medical Association guidelines. […] For all mouse models, 1×10^6 melanoma cells were injected subcutaneously in the right hind flanks of each mouse. Between 7-14 days, when the tumor volumes reached ˜150 mm^3, the mice were either supplemented with or without 100 mM L-fucose (Biosynth (Oak Terrace, IL)) via drinking water, which was provided ad libitum. When the tumors reached ˜2 cm^3, the animals were sacrificed, and the tumors either processed for flow cytometric profiling or for histological analysis as indicated. […]

The subject of assay [2] is human PBMC-derived, CD3/CD28-activated CD4+T cells. Put plainly: Phosphoproteomic and fuco-proteomic mass spectrometric profiling of CD4+T cells. The class given is cell-based. As to conditions: 250 μM L-fucose, 48 h. The text has this:
FIGS. 14A-14E show Fucosylation of CD4^+T cells affects PKA activity and actin polymerization; and the identification of Integrin P5 as a highly fucosylated protein in activated CD4+ T cells. (a) Top 5 pathways in human CD4^+T cells that are affected by increased fucosylation identified by Ingenuity Pathway Analysis (Qiagen; pathways were identified from phosphoproteomic analyses of CD3/CD28-activated human PBMC-derived CD4^+T cells treated L-fucose (LF) isolated from 3 independent healthy human donors (D1, D2, D3)). (b) (left) Immunoblot of PKA phosphorylated substrates (top) and Ponceau staining (bottom) of human PBMC-derived, CD3/CD28-activated CD4^+T cells that were treated ±250 μM LF±10 μM forskolin (Fkn, a PKA agonist). (right) Densitometric quantification of selected bands (red dashed boxes) normalized to Ponceau staining. (c) Immunoblot of β-actin (top) and Ponceau staining (middle) of human PBMC-derived, CD3/CD28 activated CD4^+T cells were treated ±250 μM LF±25 mM DTSP crosslinker (x-link). (bottom) Densitometric quantification of high molecular weight β-actin oligomers (red dashed boxes) normalized to Ponceau intensity and then normalized to −LF, -x-link samples. (d) Top 5 AAL-bound (fucosylated) proteins in human PBMC-derived, CD3/CD28-activated CD4^+T cells from (a) that were identified by Ingenuity Pathway Analysis (Qiagen). […]

For another assay, the system named is mouse melanoma tumors. Description: Earlier mouse melanoma model with dietary fucose supplementation or FUK overexpression (tumor growth, CD45 and DX5 staining). It counts as in vivo. The method, then:
To determine whether dietary or genetic modulation of fucosylation affects tumor growth and metastasis, we previously studied a mouse melanoma model in which tumor fucosylation was increased either by dietary supplementation (FIG. 2A) with 100 mM fucose or by overexpressing mouse FUK (FIG. 2B). […] To determine whether fucosylation affects tumor infiltration by immune cells, Immunofluorescent staining analysis of CD45 (general leukocyte marker, red) and DAPI (blue) was performed (FIG. 2C). To determine whether fucosylation affects tumor infiltration by NK cells, immunofluorescent staining analysis for DX5 (an NK cell marker, red) and DAPI (blue) was performed (FIG. 2D). Both NK cells and CD4+ T cells were elevated in samples from fucose supplemented mice.

Take `C[C@H](O)[C@@H](O)[C@@H](O)[C@H](O)C=O` [L-fucose]: the “L-fuc-triggered tumor suppression and induction of total itICs” value in assay [1] (EB1 knockdown) is listed as “completely abolished”. The “control (shNT) tumor growth” value in assay [1] (non-targeting shRNA SW1 tumors) is listed as “impaired”. Besides, in assay [1] (shEB1 tumors reconstituted with EB1 WT or N46G), the “L-fuc-induced TIL and tumor growth suppression after EB1 knockdown and reconstitution” value is reported as “rescued by reconstitution with only WT but not glyco-fucomutant EB1”. Also, the “Protein Kinase A (PKA) and actin signaling” value in assay [2] is given as “significantly altering”. Also, the “block of tumor growth and metastasis” value with mouse melanoma tumors (dietary L-fucose supplementation, mouse models) is reported as > 50%. Further, in the assay on mouse melanoma tumors (dietary supplementation with 100 mM fucose (FIG. 2A)), the tumor suppression result is reported as “increased tumor suppression”. The “NK cells and CD4+ T cells in tumor samples” value in the assay on mouse melanoma tumors (fucose supplemented mice (FIG. 2C, 2D)) was “elevated”.
